Results reported in PubChem BioAssay (NCI).
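Five concentrations, 48 hours, 96-well plates. TGI marks complete inhibition of growth.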

Key:
Experiment in all cases: inhibition of tumour cell growth, NCI panel, 48 h
MOLT-4 leukemia = test system: MOLT-4 leukemia
IGROV1 ovarian = test system: IGROV1 ovarian
DU-145 prostate = test system: DU-145 prostate
SW-620 colon = test system: SW-620 colon
MDA-MB-231 breast = test system: MDA-MB-231 breast
MCF7 breast = test system: MCF7 breast
UO-31 renal = test system: UO-31 renal
HOP-92 NSCLC = test system: HOP-92 NSCLC
OVCAR-4 ovarian = test system: OVCAR-4 ovarian
HOP-62 NSCLC = test system: HOP-62 NSCLC
EKVX NSCLC = test system: EKVX NSCLC
HCC-2998 colon = test system: HCC-2998 colon
M14 melanoma = test system: M14 melanoma
PC-3 prostate = test system: PC-3 prostate
CCRF-CEM leukemia = test system: CCRF-CEM leukemia
NCI-H460 lung = test system: NCI-H460 lung
SK-MEL-28 melanoma = test system: SK-MEL-28 melanoma
SK-MEL-5 melanoma = test system: SK-MEL-5 melanoma
LOX IMVI melanoma = test system: LOX IMVI melanoma
SN12C renal = test system: SN12C renal

Measured: TGI

COc1cccc(N2C(=O)CSC2c2c[nH]c3ccccc23)c1 (stereo not given)
> 100 µM: all assays above
